Measured values from ChEMBL document CHEMBL1681705, “Optimisation of ITK inhibitors through successive iterative design cycles” (Bioorg Med Chem Lett, 2011).

How the values were obtained:
[1] = target: Mitogen-activated protein kinase 14 (Homo sapiens) (UniProt Q16539); assay: Inhibition of SAPK2a at 1 uM
[2] = target: T1, Serine/threonine-protein kinase Chk1 (Homo sapiens) (UniProt O14757); assay: Inhibition of CHK1 at 1 uM; values are per cent of control
T1 sequence (whole entry): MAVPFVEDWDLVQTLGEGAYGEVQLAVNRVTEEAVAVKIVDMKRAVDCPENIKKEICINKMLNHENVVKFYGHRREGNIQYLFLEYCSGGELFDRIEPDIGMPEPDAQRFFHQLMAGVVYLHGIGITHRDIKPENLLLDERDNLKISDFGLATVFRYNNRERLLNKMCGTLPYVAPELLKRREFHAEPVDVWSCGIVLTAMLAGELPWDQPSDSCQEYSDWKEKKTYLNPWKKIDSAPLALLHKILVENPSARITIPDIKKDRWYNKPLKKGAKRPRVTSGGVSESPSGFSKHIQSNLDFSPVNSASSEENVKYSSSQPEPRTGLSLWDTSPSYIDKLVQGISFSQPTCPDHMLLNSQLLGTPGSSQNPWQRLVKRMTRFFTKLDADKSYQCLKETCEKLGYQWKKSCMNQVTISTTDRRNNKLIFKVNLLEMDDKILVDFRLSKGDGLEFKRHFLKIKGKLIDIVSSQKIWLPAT

[3] = target: T2, Ephrin type-B receptor 3 (Homo sapiens) (UniProt P54753); assay: Inhibition of EphB3 at 1 uM; values are per cent of control
T2 sequence (whole entry): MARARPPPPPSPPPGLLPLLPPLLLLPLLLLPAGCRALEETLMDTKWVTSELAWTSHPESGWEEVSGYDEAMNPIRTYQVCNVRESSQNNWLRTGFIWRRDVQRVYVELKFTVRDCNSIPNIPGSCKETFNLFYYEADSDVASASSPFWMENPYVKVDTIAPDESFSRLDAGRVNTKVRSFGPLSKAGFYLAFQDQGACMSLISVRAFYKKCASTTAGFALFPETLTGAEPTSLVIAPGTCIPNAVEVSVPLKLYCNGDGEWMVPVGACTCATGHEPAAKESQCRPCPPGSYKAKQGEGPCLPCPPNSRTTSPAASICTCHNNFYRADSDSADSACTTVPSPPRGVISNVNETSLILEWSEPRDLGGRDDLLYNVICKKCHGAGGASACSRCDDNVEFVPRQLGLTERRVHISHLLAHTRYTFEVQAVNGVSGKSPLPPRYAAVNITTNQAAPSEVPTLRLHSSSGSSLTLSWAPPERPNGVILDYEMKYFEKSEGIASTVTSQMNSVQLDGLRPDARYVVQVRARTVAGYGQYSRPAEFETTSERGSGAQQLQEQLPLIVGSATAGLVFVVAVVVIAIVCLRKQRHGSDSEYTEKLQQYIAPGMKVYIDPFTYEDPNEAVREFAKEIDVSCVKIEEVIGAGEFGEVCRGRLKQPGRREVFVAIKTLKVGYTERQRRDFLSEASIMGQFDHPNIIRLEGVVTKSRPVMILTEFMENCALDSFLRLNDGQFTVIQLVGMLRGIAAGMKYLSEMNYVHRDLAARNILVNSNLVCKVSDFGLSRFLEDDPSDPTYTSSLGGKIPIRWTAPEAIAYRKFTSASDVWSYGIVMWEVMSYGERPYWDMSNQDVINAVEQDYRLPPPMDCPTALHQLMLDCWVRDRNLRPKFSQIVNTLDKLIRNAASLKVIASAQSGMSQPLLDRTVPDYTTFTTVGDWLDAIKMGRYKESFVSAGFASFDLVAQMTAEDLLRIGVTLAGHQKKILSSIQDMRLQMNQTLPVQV

[4] = target: Tyrosine-protein kinase BTK (Homo sapiens) (UniProt Q06187); assay: Inhibition of BTK at 0.1 uM; values are per cent of control
[5] = target: Tyrosine-protein kinase BTK (Homo sapiens) (UniProt Q06187); assay: Inhibition of BTK at 1 uM; values are per cent of control
[6] = target: Tyrosine-protein kinase Fer (Homo sapiens) (UniProt P16591); assay: Inhibition of Fer at 1 uM; values are per cent of control
[7] = target: Fibroblast growth factor receptor 4 (Homo sapiens) (UniProt P22455); assay: Inhibition of FGFR4 at 0.1 uM; values are per cent of control
[8] = target: Receptor tyrosine-protein kinase erbB-4 (Homo sapiens) (UniProt Q15303); assay: Inhibition of ErbB4 at 0.1 uM; values are per cent of control
[9] = target: Macrophage colony-stimulating factor 1 receptor (Homo sapiens) (UniProt P07333); assay: Inhibition of Fms at 0.1 uM; values are per cent of control
[10] = target: Receptor-interacting serine/threonine-protein kinase 2 (Homo sapiens) (UniProt O43353); assay: Inhibition of RIPK2 at 1 uM; values are per cent of control
[11] = target: MAP kinase-activated protein kinase 2 (Homo sapiens) (UniProt P49137); assay: Inhibition of MAPKAP-K2 at 1 uM
[12] = target: T3, Tyrosine-protein kinase ITK/TSK (Homo sapiens) (UniProt Q08881); assay: Inhibition of Itk at 1 uM; values are per cent of control
T3 sequence (whole entry): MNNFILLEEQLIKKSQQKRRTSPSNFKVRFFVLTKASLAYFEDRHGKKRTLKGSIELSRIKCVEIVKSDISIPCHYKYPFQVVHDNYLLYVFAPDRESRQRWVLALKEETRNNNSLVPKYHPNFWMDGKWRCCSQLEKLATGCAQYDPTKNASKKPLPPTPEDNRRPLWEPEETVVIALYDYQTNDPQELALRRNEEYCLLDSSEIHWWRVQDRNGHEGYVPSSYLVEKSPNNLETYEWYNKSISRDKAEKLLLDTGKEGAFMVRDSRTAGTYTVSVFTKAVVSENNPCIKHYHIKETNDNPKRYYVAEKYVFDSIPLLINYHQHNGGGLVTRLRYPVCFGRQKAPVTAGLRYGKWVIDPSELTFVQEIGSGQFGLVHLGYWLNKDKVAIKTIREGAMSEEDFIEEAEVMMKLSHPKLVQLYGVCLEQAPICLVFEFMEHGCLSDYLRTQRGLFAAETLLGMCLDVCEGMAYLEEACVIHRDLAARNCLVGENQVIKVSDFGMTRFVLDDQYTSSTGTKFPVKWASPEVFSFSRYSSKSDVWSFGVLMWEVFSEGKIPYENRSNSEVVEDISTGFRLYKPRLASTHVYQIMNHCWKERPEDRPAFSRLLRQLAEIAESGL

Chain of Tyrosine-protein kinase BTK (Homo sapiens) (Q06187 whole entry): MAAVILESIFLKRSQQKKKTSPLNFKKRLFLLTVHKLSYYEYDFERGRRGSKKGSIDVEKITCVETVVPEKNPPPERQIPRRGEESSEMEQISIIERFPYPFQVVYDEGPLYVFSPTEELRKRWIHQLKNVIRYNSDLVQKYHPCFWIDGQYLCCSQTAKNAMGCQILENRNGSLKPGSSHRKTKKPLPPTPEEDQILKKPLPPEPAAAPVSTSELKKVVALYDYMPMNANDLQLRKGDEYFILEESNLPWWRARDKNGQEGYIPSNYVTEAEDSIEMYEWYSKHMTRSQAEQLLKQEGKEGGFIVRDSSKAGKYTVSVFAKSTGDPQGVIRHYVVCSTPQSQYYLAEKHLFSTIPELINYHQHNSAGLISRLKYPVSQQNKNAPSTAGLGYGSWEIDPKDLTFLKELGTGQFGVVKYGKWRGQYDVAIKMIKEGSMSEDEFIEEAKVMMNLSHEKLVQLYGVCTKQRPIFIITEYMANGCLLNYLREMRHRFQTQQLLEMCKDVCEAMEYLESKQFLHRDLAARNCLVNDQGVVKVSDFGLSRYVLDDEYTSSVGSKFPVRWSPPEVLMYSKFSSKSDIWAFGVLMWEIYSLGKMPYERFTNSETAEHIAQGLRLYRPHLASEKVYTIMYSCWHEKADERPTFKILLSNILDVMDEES
Chain of Mitogen-activated protein kinase 14 (Homo sapiens) (Q16539 whole entry): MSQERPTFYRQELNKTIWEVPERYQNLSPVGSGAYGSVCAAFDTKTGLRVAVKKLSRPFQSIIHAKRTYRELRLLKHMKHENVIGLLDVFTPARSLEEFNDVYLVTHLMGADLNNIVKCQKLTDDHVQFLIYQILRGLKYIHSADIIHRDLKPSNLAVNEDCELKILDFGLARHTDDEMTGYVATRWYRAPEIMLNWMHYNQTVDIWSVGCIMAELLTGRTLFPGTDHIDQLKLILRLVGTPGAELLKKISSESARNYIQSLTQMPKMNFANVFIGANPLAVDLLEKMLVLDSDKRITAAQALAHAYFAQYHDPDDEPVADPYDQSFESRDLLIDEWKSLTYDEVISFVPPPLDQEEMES
Chain of Tyrosine-protein kinase Fer (Homo sapiens) (P16591 whole entry, looked up): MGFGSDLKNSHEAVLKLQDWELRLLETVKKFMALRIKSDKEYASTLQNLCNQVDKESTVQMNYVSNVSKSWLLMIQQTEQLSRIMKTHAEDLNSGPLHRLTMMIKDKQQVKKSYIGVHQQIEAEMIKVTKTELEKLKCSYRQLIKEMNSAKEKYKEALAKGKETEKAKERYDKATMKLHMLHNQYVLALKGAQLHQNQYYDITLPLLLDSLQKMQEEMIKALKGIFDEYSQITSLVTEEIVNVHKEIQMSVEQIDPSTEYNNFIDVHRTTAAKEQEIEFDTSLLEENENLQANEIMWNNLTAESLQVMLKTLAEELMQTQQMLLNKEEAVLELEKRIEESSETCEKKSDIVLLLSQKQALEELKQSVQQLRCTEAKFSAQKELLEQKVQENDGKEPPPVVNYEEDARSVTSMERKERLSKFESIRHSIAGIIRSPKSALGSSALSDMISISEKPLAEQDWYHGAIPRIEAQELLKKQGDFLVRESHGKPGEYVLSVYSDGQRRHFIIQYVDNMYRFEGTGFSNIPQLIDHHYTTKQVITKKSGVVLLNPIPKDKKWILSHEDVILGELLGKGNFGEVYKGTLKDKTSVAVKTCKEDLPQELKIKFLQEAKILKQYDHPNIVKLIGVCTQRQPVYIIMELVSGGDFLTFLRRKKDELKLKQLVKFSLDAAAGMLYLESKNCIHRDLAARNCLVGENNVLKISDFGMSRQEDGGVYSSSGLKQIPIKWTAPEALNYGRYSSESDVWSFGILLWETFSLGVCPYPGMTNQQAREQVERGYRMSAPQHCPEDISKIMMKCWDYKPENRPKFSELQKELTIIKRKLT
Chain of Receptor tyrosine-protein kinase erbB-4 (Homo sapiens) (Q15303 whole entry): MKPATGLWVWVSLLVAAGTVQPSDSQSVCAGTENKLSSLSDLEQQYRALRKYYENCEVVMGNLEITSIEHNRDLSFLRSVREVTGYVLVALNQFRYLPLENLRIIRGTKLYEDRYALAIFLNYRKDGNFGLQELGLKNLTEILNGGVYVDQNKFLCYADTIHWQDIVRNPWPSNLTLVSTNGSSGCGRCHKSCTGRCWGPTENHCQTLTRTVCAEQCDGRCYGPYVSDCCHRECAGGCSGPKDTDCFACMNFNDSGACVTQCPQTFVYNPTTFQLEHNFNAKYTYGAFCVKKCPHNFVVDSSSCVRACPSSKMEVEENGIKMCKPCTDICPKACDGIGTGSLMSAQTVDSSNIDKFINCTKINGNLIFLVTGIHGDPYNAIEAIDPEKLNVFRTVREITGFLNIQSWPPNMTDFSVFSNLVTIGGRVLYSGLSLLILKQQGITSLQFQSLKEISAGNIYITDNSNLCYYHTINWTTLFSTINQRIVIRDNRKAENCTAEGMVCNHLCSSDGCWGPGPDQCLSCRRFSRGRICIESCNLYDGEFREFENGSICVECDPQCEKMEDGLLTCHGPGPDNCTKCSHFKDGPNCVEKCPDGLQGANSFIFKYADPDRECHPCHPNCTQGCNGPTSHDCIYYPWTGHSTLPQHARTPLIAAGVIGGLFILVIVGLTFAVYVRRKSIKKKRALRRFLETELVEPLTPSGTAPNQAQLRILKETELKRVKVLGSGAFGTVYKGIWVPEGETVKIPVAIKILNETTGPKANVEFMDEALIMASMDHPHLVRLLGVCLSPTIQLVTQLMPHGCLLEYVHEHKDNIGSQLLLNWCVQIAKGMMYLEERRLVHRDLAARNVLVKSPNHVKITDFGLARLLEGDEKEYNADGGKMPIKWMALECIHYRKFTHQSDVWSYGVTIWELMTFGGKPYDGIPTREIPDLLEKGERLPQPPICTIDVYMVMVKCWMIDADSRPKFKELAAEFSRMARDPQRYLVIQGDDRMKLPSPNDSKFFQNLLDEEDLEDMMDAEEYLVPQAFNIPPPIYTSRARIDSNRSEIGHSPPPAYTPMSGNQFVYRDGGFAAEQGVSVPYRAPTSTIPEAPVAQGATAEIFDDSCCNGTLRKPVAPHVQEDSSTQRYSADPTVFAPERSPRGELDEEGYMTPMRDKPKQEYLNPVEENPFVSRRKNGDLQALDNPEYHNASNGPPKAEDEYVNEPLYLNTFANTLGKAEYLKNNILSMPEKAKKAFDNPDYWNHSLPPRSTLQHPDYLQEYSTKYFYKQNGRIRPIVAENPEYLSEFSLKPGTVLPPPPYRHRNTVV
Chain of Macrophage colony-stimulating factor 1 receptor (Homo sapiens) (P07333 whole entry): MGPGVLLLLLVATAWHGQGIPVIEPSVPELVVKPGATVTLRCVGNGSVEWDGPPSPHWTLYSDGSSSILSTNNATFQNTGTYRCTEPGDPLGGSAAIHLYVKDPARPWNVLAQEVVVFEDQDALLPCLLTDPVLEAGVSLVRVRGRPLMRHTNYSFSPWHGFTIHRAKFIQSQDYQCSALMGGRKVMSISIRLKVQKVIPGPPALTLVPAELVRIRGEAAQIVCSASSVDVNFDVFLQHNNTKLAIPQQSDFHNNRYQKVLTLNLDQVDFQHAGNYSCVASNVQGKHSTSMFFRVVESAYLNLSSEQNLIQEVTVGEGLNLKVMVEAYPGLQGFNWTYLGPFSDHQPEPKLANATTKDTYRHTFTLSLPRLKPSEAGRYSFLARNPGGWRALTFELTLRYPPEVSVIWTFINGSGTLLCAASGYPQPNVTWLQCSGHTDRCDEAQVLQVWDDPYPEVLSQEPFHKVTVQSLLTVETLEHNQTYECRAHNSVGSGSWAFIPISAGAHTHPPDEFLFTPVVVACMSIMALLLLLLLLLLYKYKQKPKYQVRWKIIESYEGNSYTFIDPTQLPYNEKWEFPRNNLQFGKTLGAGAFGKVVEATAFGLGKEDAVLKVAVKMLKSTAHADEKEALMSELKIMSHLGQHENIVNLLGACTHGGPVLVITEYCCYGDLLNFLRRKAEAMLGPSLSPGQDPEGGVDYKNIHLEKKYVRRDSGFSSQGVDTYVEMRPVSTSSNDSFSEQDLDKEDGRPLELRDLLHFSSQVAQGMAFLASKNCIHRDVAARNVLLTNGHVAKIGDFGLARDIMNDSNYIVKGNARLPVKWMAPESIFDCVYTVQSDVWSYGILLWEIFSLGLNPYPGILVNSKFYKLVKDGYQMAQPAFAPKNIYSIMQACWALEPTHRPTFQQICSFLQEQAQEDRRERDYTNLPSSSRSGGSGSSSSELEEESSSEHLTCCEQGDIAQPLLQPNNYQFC
Chain of MAP kinase-activated protein kinase 2 (Homo sapiens) (P49137 whole entry, looked up): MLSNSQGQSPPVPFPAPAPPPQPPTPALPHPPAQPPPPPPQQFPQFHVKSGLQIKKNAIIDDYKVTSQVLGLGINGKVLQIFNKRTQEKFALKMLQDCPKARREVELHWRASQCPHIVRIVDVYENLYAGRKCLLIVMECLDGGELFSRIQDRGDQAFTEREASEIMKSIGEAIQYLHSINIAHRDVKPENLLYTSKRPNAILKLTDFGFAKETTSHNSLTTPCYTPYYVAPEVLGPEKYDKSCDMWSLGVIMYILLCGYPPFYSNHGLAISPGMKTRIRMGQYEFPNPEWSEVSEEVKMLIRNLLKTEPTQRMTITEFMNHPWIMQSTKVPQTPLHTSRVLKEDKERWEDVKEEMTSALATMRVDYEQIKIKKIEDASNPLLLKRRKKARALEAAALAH
Chain of Receptor-interacting serine/threonine-protein kinase 2 (Homo sapiens) (O43353 whole entry): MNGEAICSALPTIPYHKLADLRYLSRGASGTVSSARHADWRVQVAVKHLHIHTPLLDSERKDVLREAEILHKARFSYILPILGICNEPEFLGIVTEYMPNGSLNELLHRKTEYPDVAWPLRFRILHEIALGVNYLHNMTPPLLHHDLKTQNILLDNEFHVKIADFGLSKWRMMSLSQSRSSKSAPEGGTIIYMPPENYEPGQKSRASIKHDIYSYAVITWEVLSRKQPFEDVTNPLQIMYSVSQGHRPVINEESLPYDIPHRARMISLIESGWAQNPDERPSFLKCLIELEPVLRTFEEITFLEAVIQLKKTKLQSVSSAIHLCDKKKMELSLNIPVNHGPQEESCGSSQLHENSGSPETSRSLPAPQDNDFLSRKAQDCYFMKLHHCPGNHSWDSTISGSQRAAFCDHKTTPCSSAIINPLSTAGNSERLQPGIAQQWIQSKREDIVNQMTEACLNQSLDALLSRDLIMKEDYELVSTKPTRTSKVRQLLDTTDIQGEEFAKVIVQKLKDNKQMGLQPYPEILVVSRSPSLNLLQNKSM

Row | inhibition [1] [%] | residual activity [2] [%] | residual activity [3] [%] | residual activity [4] [%] | residual activity [5] [%] | residual activity [6] [%] | residual activity [7] [%] | residual activity [8] [%] | residual activity [9] [%] | residual activity [10] [%] | inhibition [11] [%] | residual activity [12] [%] | SMILES
1 | 97 | 40 | 119 | 38 | -4 | 3 | 65 | 43 | 60 | 78 | 93 | 7 | Cc1ccc2cc(-c3n[nH]c4ccc(NC5CCN(Cc6ccccc6)CC5)cc34)[nH]c2c1
2 | 99 | 6 | 105 | 69 | 10 | 2 | 63 | 81 | 57 | 53 | 48 | 2 | Cc1ccc2cc(-c3n[nH]c4ccc(NC5CCNC5)cc34)[nH]c2c1 (centres undefined)
